Results: patent US12319954B2, “Morphinan compounds” (Concert Pharmaceuticals, Inc., priority 2007, dated 2025)

Columns and labels:
[1] = Metabolic stability in human liver microsomes; settings: for remained intact after 30 minutes of incubation: 0.25 μM compound, 2 mg/mL human liver microsomes, FIG. 2
Procedure: (§1) The objectives of this study were to determine the metabolic stability of the test compounds in pooled human and […] liver microsomal incubations. Samples of the test compounds, exposed to pooled human or […] liver microsomes, were analyzed using HPLC-MS (or MS/MS) detection. For determining metabolic stability, multiple reaction monitoring (MRM) was used to measure the disappearance of the test compounds.
(§2) Experimental Procedures: Human liver and Cynomolgus monkey liver microsomes were obtained from XenoTech, LLC (Lenexa, KS). The incubation mixtures were prepared as follows:
(§3) Incubation of Test Compounds with Liver Microsomes: The reaction mixture, minus cofactors, was prepared. An aliquot of the reaction mixture (without cofactors) was incubated in a shaking water bath at 37° C. for 3 minutes. Another aliquot of the reaction mixture was prepared as the negative control. The test compound was added into both the reaction mixture and the negative control at a final concentration of 0.10, 0.25, or 1 μM. An aliquot of the reaction mixture was prepared as a blank control, by the addition of plain organic solvent (no test compound is added). The reaction was initiated by the addition of cofactors (not added to the negative controls), and then incubated in a shaking water bath at 37° C. Aliquots (200 μL) were withdrawn in triplicate at multiple time points and combined with 800 μL of ice-cold 50/50 acetonitrile/dH2O to terminate the reaction.
All samples were analyzed using LC-MS (or MS/MS). An LC-MRM-MS/MS method is used for metabolic stability. For testing in cynomolgus monkey liver microsomes, a final concentration of 1 μM of each compound and 0.5 mg/mL of microsomes were used.

[2] = monkeys, FIG. 6
Procedure: OBJECTIVE—The objective of this study was to collect plasma samples from Cynomolgus Monkeys at various time points following oral administration of test articles in combination. The samples were used for the determination of plasma drug levels by LC/MS/MS for estimating pharmacokinetic parameters. This study was conducted in accordance with Shanghai Medicilon Inc. Standard Operating Procedures (SOPs). The Sponsor provided the test compounds and internal standard compound.
EXPERIMENTAL DESIGN—Four Cynomolgus Monkeys were used in this study.
The combination dose was prepared by mixing both by 1:1 to yield a concentration of 1 mg/mL for each compound. […] Quinidine was prepared in DMI:EtOH:PG:water (10:15:35:40, v/v/v/v) at 3 mg/mL and dosed separately. The doses were given BID orally with an interval of 12 hours. […] Dosing volume of Quinidine was determined based on the dose each animal was getting. Dose volumes for each test animal was determined based on individual body weight. Body weights were taken on each day of dose administration and were be recorded.
Urine Sample Collection—Urine samples in between two doses on Day 5 (for 12 hours between doses 9 and 10) were collected in a plate and quantified by volume. After collection, the urine samples were be stored in −20° C. and then shipped back to client. […]

[3] = Plasma levels in cynomolgus monkeys after oral BID co-dosing of Compound 101 and dextromethorphan, with or without quinidine; assay type: in vivo
Procedure: Blood Sample Collection—Blood sampling tOOK place on Day 6 after oral administration of the last dose (Dose 11). Blood (approximately 1 mL) was collected via femoral vein into tubes containing sodium heparin anticoagulant at 0.25, 0.5, 1, 1.5, 2, 3.5, 6 and 8 hours. The plasma was separated via centrifugation and stored in −20° C. before analysis.
Dilution using cynomolgus monkey plasma blank were applied if the sample concentration was over the ULOQ of calibration standard curve. The data acquisition and control system was created using Analyst 1.4 software from ABI Inc.

[4] = Metabolic stability in cynomolgus monkey liver microsomes; settings: 1 μM compound, 0.5 mg/mL microsomes; FIG. 1
Procedure: as §1, §2
as §3, with “Aliquots (200 μL) were withdrawn in triplicate at multiple time points and combined with 800 μL of ice-cold 50/50 acetonitrile/dH2O to terminate the reaction.” left out
All samples were analyzed using LC-MS (or MS/MS). […]

[5] = target: T1, Human CYP2D6+P450 Reductase SUPERSOMES (Homo sapiens, UniProt P10635); assay: Metabolic stability in CYP2D6 SUPERSOMES; assay type: in vitro ADME; settings: 0.1 μM compound, 20 minutes
T1 construct: purchased GenTest (Woburn, MA, USA); host or cells: insect cells (inferred from the negative control, insect cell microsomes)
Procedure: Human CYP2D6+P450 Reductase SUPERSOMES™ were purchased from GenTest (Woburn, MA, USA). […] Aliquots (50 μL) were removed from each sample and placed in wells of a multi-well plate at 0, 2, 5, 7, 12, 20, and 30 minutes and to each was added 50 μL of ice cold acetonitrile with 3 μM haloperidol as an internal standard to stop the reaction.
Plates containing the removed aliquots were then placed in −20° C. freezer for 15 minutes to cool. After cooling, 100 μL of deionized water was added to all wells in the plate. Plates were then spun in the centrifuge for 10 minutes at 3000 rpm. A portion of the supernatant (100 μL) was then removed, placed in a new plate and analyzed using Mass Spectrometry.

T1 sequence (P10635 whole entry): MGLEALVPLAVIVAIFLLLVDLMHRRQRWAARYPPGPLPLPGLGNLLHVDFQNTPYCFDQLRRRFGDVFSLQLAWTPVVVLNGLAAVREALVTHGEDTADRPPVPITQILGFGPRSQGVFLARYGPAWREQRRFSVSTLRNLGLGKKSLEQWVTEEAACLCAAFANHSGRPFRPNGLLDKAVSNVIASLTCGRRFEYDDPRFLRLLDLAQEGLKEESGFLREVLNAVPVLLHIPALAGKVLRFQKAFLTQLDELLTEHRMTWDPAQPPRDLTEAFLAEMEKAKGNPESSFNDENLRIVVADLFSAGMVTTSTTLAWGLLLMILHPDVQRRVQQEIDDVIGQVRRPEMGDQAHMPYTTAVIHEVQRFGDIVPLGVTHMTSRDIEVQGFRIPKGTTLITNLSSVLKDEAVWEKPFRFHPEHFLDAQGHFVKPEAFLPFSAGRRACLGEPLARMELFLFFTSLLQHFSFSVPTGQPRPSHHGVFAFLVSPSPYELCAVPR

Molecule	remained intact after 30 minutes of incubation [1]	urine level of parent compound compared to dextromethorphan ([2]; at the same quinidine concentration)	plasma levels compared to dextromethorphan ([3]; co administered with the same amount of quinidine, FIG. 5)	metabolism to deuterated dextrorphan isotopologues (plasma) ([3]; no quinidine, FIG. 4)	stability in monkey liver microsomes compared with dextromethorphan [4]	urine levels, effect of quinidine concentration [2]	intact compound at the 20 minute time point with 2D6 Supersomes [5]	remained intact after a 30 minute exposure ([1]; 0.5 mg/mL human liver microsomes) [%]
[2H]C([2H])([2H])Oc1ccc2c(c1)[C@]13CCCC[C@@H]1[C@H](C2)N(C([2H])([2H])[2H])CC3 [Compound 101, (+)-3-d3-methoxy-17-d3-methyl-(9α, 13α, 14α)-morphinan]	approximately 45%	less Compound 101 in the urine than dextromethorphan	greater than dextromethorphan plasma levels	reduced relative to metabolism of dextromethorphan to dextrorphan	greater stability than dextromethorphan	–	–	–
COc1ccc2c(c1)[C@]13CCCC[C@@H]1[C@H](C2)N(C)CC3 [Dextromethorphan, (+)-3-methoxy-17-methyl-(9α, 13α, 14α)-morphinan, reference compound]	about 33%	–	–	–	–	affected by increasing quinidine concentration	no intact dextromethorphan could be detected	–
(+)-3-d3-methoxy-17-methyl-(9α, 13α, 14α)-morphinan [Compound 100]	~42%	–	–	–	greater stability than dextromethorphan	–	–	~71
